Literature values, collected in PMC4303313 (Biochemistry, 2014).

Tests used:
reduced RfBP = biological target: T1, reduced RfBP (Gallus gallus, UniProt P02752); settings: no GSH
T1 sequence (P02752 18-238): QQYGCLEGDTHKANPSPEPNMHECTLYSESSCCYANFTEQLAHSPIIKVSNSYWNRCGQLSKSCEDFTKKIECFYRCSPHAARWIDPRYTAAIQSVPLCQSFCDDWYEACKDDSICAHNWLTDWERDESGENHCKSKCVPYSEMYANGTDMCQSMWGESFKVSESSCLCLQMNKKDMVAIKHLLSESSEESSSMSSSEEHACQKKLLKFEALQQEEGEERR

reduced RNase = biological target: T2, reduced RNase (Bos taurus, UniProt P61823)
T2 sequence (P61823 27-150): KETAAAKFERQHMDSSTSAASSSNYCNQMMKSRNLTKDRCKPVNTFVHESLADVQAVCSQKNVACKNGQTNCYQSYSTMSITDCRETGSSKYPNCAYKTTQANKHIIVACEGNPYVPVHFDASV

## C[As](O)O [MMA]
Reduced RfBP
  effect on ability of reoxidized RfBP to rebind riboflavin: profoundly attenuated
Reduced RNase; no GSH
  formation of filamentous deposits from reduced RNase: led to the formation of filamentous deposits
Reduced RNase; reduced RNase and GSH
  formation of aggregates from reduced RNase: do not appear
